Structures are written as SMILES.

Assay [1] relates to Wnt-responsive promoter driving firefly luciferase in SW480 cells. The assay is described as follows: Wnt reporter (SP5 promoter-luciferase) screening assay in SW480 cells. The assay is classed as cell-based. To be noted: Homo sapiens, 24-40 h, top concentration ten micromolar. The method in brief:
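SW480 (APC-mutant colon) cells stably transduced with lentiviral SP5-promoter (eight TCF/LEF sites) firefly luciferase, ~10,000 cells/well. Signals normalized to DMSO controls for EC50 fitting.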

The test system of assay [2] is primary human mesenchymal stem cells (hMSCs). The assay is described as follows: Tenocyte Differentiation Assay, hMSCs, 7 days (Example 11). To be noted: 168 h, 750-5.8 nM, read-out: EC50, induction of SCXA, TenacinC and Tenomodulin expression. It counts as cell-based. The procedure: Primary human mesenchymal stem cells (hMSCs; Lonza Inc) were cultured in MSCGM™ Mesenchymal Stem Cell Growth Medium, with 10% FBS (Lonza) 10% fetal bovine serum (FBS) (Hyclone) at 37° C., 5% CO2. hMSCs were used between passage 2 and 6 and were never allowed to reach confluence to maintain a naive state.
Tenocyte Differentiation Assay. For tenocyte differentiation, hMSCs were plated in 384-well plates at 1×10^4 cells/well in Dulbecco's modified Eagle's medium (DMEM, ThermoFisher) with 1% fetal bovine serum (FBS) (Hyclone). Cells were then treated with DMSO (vehicle control) or compound 175 at 750 nM top concentration and 2-fold dilution up to 8 concentrations ([…], 166.6, 83.3, 41.7, 21.7, 10.8 and 5.8 nM) and incubated for 7 days at 37° C. A combination of BMP and FGF ([…], Peprotech, Inc.) was used as a positive control. […] Plates were imaged using a CX5 high-content imager (ThermoFisher) and the % of cells stained positive were determined using a cell scoring algorithm (ThermoFisher). Data was plotted and EC50 was calculated using Prism 5 (GraphPad Software Inc, La Jolla, Calif., USA). […]

The test system of assay [3] is KC/GRO in plasma. The assay is described as follows: Rat Tendinopathy Model (1), plasma biomarker KC/GRO. It counts as in vivo. The procedure:
Fifty (50 μl) of Collagenase Type IA (10 mg/ml in PBS, pH 7.4, approximately 469 units/mg) (Catalog # C5138, Sigma, St. Louis, Mo.) was injected into the Achilles tendon of both ankles near the osteotendinous junction of male Sprague Dawley CD® IGS rats (CRL, Inc.), using insulin syringes with 28.5 G needle.
[…] […] All rats were periodically observed for any pain, illnesses or abnormalities. At various time points, blood was collected for plasma in lithium heparin coated tubes by saphenous vein bleeding. For histology, rats were euthanized using isoflurane, tendons were isolated (n=6 tendons/group), fixed in 10% buffered formalin (Catalog # SF93-4, Fisher, Pittsburgh Pa.) and H & E histology staining was performed at a secondary site (Pacific Pathology, San Diego, Calif.). For biochemical analysis, tendons were isolated (n=4 tendons/group), flash frozen in liquid nitrogen and then stored at −80° C. for subsequent biochemical analysis (not reported).
Following manufacturer's instructions, KC/GRO plasma levels were determined using the KC/GRO Immunoassay kit (Catalog#900-K57, Peprotech, Rocky Hill, N.J.). Briefly, 96-well plates were coated with the anti-rat KC/GRO capture antibody overnight and washed to remove excess antibody. Plasma samples were incubated in the coated plates for 2 hours at room temperature. Following washes to remove unbound proteins, biotinylated anti-rat KC/GRO detection antibody was added and incubated for 30 mins at room temperature. Following washes to remove unbound excess antibody, avidin-HRP was added and incubated for 30 mins at room temperature. Following washes to remove unbound Avidin-HRP, the ABTS substrate was added and the plates were read on the Cytation 3 plate reader (Biotek Inc., Winooski, Vt.) at an absorbance of 525 nm with correction at 450 nm. All samples were processed in triplicate.
In this study, a total of 64 sections were scored for Group 1 (sham injection group) and approximately 96 sections each for Group 2 (Collagenase-Vehicle), Group 3 (Collagenase-compound 175 with BA preservative) group and Group 4 (Collagenase-compound 175 without preservative). To determine statistical significance between groups, student's t-test was performed with p<0.05 considered as significant for histology scoring and biomarker assay.

On to `COc1ccc(NC(=O)c2n[nH]c3ccc(-c4cncc(CN5CCCCC5)c4)cc23)cn1` [compound 175, N-(6-Methoxypyridin-3-yl)-5-(5-(piperidin-1-ylmethyl)pyridin-3-yl)-1H-indazole-3-carboxamide], for which the EC50 (usually the concentration giving half of the maximal effect) is 25 nM in assay [1] and 139 to 189 nM in assay [2]. Moreover, the “plasma KC/GRO vs vehicle” value in assay [3] (10 mg/mL with or without BA preservative) is reported as “significantly decreased the levels of KC/GRO in plasma”. The “Plasma KC/GRO Concentration” value is 332 ± 51.3 pg/mL in assay [3] (Day 0, Group 3, 10 mg/mL with 0.5% BA); 530 ± 31.4 pg/mL in assay [3] (Day 0, Group 4, 10 mg/mL without BA, with 0.5% Tween 80); 521 ± 23.9 pg/mL in assay [3] (Day 1, Group 3, 10 mg/mL with 0.5% BA); 637 ± 120 pg/mL in assay [3] (Day 1, Group 4, 10 mg/mL without BA, with 0.5% Tween 80); 813 ± 61.4 pg/mL in assay [3] (Day 3, Group 3, 10 mg/mL with 0.5% BA); 541 ± 58.9 pg/mL in assay [3] (Day 3, Group 4, 10 mg/mL without BA, with 0.5% Tween 80). Moreover, the “Plasma KC/GRO Concentration” value in assay [3] (Day 5, Group 3, 10 mg/mL with 0.5% BA) came out at 480 ± 48.7 pg/mL; in assay [3] (Day 5, Group 4, 10 mg/mL without BA, with 0.5% Tween 80), 410 ± 86.0 pg/mL; in assay [3] (Day 7, Group 3, 10 mg/mL with 0.5% BA), 421 ± 57.2 pg/mL; in assay [3] (Day 7, Group 4, 10 mg/mL without BA, with 0.5% Tween 80) it was 451 ± 76.6 pg/mL; in assay [3] (Day 14, Group 3, 10 mg/mL with 0.5% BA), 400 ± 10.3 pg/mL; in assay [3] (Day 14, Group 4, 10 mg/mL without BA, with 0.5% Tween 80) it was 424 ± 76.2 pg/mL. Further, the “Plasma KC/GRO Concentration” value in assay [3] (Day 21, Group 3, 10 mg/mL with 0.5% BA) is recorded as 408 ± 83.3 pg/mL; in assay [3] (Day 21, Group 4, 10 mg/mL without BA, with 0.5% Tween 80), 347 ± 111 pg/mL. Moreover, the “plasma KC/GRO levels, range” value lay within 400 to 480 pg/mL in assay [3] (Days 5-21, treated group with BA) and 347 to 451 pg/mL in assay [3] (Days 5-21, treated group without BA).

The record behind these values is patent US10806726B2, “Methods of using indazole-3-carb oxamides and their use as Wnt/B-catenin signaling pathway inhibitors” (Samumed, LLC, priority 2016, dated 2020).
